The target of the first assay is T1, Arginase (ARG1 enzyme) (Homo sapiens, UniProt P05089).
T1 construct: made in house; host or cells: Escherichia coli
T1 sequence (P05089 1-322): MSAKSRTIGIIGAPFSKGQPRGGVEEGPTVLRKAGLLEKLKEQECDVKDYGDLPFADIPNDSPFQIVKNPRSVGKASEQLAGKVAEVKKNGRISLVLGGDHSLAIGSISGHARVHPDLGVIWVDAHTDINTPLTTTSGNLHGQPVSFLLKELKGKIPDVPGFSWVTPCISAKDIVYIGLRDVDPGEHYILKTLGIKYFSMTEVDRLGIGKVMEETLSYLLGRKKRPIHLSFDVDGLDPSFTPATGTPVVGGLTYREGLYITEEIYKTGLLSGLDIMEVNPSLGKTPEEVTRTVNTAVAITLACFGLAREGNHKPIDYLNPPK
The assay is described as follows: Arginase Thioornithine Generating Assay (TOGA). As to conditions: 1.88 nM arginase, thioarginine substrate, fluorescence readout. Type of assay: biochemical. How it is done: Arginase Thioornithine Generating Assay (TOGA)
Compounds were serially diluted in ten 3-fold steps in DMSO starting from 10 mM DMSO stocks. Compound dilutions or DMSO alone were then dispensed from the dilution plate into a Greiner black 384-well assay plate (catalog #781086) using an Echo 555 acoustic liquid handler (Labcyte).
Arginase protein was recombinantly expressed in Escherichia coli. Purified protein was then diluted in assay buffer (50 mM Tris pH 7.5, 50 mM NaCl, 1 mM manganese chloride, 0.05% bovine serum albumin to obtain a final Arginase concentration of 1.88 nM. Arginase solution (20 μL) or buffer alone (20 μL) were dispensed to wells of the assay plate using a BioRAPTR liquid dispenser (Beckman Coulter). Assay plates containing compound and ARG1 enzyme were incubated at room temperature for 30 minutes. Afterwards, 5 μL of 2.5 mM thioarginine (Cayman Chemicals) in assay buffer were added to each well of the assay plate using a BioRAPTR liquid dispenser. Plates were incubated at room temperature for 60 minutes and reactions were quenched by addition of 15 μL of […] 7-Diethylamine-3-(4-maleimidophenyl)-4-methylcoumarin (Sigma Chemical) in 70% ethanol. Plates were briefly shaken to mix and the fluorescence was measured in an Spectramax plate reader (Molecular Devices) with a 410 nm excitation wavelength and an 490 nm emission wavelength.
Potencies were calculated by […] to the four parameter logistic IC50 equation.
Take `O=C(O)[C@]1(CO)NCC[C@H]1CCCB(O)O` (single isomer, unassigned) [Example 59B]: 133 nM corresponded to half-maximal inhibition (IC50). `CCN(CC)[C@H]1CN[C@H](C(=O)O)[C@@H]1CCCB(O)O` [Example 28, (2S,3S,4R)-3-(3-boronopropyl)-4-(diethylamino)pyrrolidine-2-carboxylic acid] displayed an IC50 of 3290 nM. In turn, `NC[C@]1(C(=O)O)NCC[C@H]1CCCB(O)O` (relative stereo) [Example 57A, 2-(aminomethyl)-3-(3-boronopropyl)pyrrolidine-2-carboxylic acid] returned a half-inhibitory concentration (IC50) of 112 nM.

For `O=C(O)[C@H]1N[C@H](CO)C[C@H]1CCCB(O)O` [Example 63, (2S,3R,5S)-3-(3-boronopropyl)-5-(hydroxymethyl)pyrrolidine-2-carboxylic acid], the half-inhibitory concentration (IC50) is 7.71 nM. Turning to `C[C@@]1(CCCB(O)O)[C@@H](CN)CN[C@@H]1C(=O)O` [Example 77, (2S,3R,4S)-4-(aminomethyl)-3-(3-boronopropyl)-3-methylpyrrolidine-2-carboxylic acid], the IC50 turned out to be 85 nM. The same measure, in the same setting: then `C[C@H](N)C(=O)N(C)[C@H]1CN[C@H](C(=O)O)[C@@H]1CCCB(O)O` [Example 51, (2S,3S,4R)-4-((S)-2-amino-N-methylpropanamido)-3-(3-boronopropyl)pyrrolidine-2-carboxylic acid], with 985 nM. Turning to `CC1(C)[C@H]2C[C@@H]3OB(CCC[C@]4(C)CCN[C@@H]4C(=O)O)O[C@]3(C)[C@@H]1C2` [Example 22, (2S,3R)-3-methyl-3-(3-((3aR,4R,6R,7aS)-3a,5,5-trimethylhexahydro-4,6-methanobenzo[d][1,3,2]dioxaborol-2-yl)propyl)pyrrolidine-2-carboxylic acid], the IC50 came to 151 nM.

With `O=C(O)[C@H]1NC[C@@]1(CO)CCCB(O)O` [Example 65, (2S,3S)-3-(3-boronopropyl)-3-(hydroxymethyl)azetidine-2-carboxylic acid], 13 nM corresponded to half-maximal inhibition (IC50).

In turn, `CN(C)C[C@H]1CN[C@H](C(=O)O)[C@]1(C)CCCB(O)O` [Example 78, (2S,3R,4R)-3-(3-boronopropyl)-4-((dimethylamino)methyl)-3-methylpyrrolidine-2-carboxylic acid] had an IC50 greater than 10000 nM. On to `O=C(O)[C@H]1NC[C@@H](O)[C@@H]1CCCB(O)O` (single isomer, unassigned) [Example 20A], for which 475 nM corresponded to half-maximal inhibition (IC50). In turn, `CC1(C)[C@H]2C[C@@H]3OB(CCC[C@@H]4CCN[C@@H]4C(=O)O)O[C@]3(C)[C@@H]1C2` [Example 13, (3R)-3-{3-[(3aR,4R,6R,7aS)-3a,5,5-trimethylhexahydro-4,6-methano-1,3,2-benzodioxaborol-2-yl]propyl}-L-proline] displayed a half-maximal inhibitory concentration (IC50) of 30 nM. As for `O=C(O)[C@H]1NC[C@H](O)[C@@H]1CCCB(O)O` [Example 82, (2S,3R,4R)-3-(3-boronopropyl)-4-hydroxypyrrolidine-2-carboxylic acid], the IC50 was greater than 10000 nM. On the same count and under the same terms, the value for `O=C(O)[C@@H]1CC(CCB(O)O)CN1` (stereo partly shown) [Example 18, 4-[2-(dihydroxyboranyl)ethyl]proline] was 8730 nM; that for `OCC1NCCC1CCCB(O)O` (stereo not shown) [Example 12, {3-[2-(hydroxymethyl)pyrrolidin-3-yl]propyl}boronic acid] was 3810 nM; that for `CC(C)(O)[C@@]1(CCCB(O)O)CN[C@@H]1C(=O)O` [Example 68, (2S,3S)-3-(3-boronopropyl)-3-(2-hydroxypropan-2-yl)azetidine-2-carboxylic acid] was 343 nM. Regarding `CCN[C@H]1CN[C@H](C(=O)O)[C@@H]1CCCB(O)O` [Example 30, (2S,3R,4R)-3-(3-boronopropyl)-4-(ethylamino)pyrrolidine-2-carboxylic acid], the half-maximal inhibitory concentration (IC50) came to 84.5 nM. For `CC(C)[C@](C)(N)C(=O)N[C@H]1CN[C@H](C(=O)O)[C@@H]1CCCB(O)O` [Example 47, (2S,3R,4R)-4-((S)-2-amino-2,3-dimethylbutanamido)-3-(3-boronopropyl)pyrrolidine-2-carboxylic acid], the concentration for half-maximal inhibition (IC50) turned out to be 29 nM.

Regarding `O=C(O)[C@@]1(CCN2CCC2)NCC[C@H]1CCCB(O)O` [Example 56], inhibition was half-maximal at 20.8 nM (IC50). Still for that read-out and setting: then `CC1CC(CCCB(O)O)[C@@H](C(=O)O)N1` (stereo partly shown) [Example 17, 3-[3-(dihydroxyboranyl)propyl]-5-methylproline], with greater than 10000 nM; and `O=C(O)[C@H]1NC[C@H](O)[C@@]1(F)CCCB(O)O` [Example 92B, (2R,3R,4S)-3-(3-boronopropyl)-3-fluoro-4-hydroxypyrrolidine-2-carboxylic acid], with 124 nM. Consider `C[C@@]1(CCCB(O)O)CCN[C@@H]1C(=O)O` [Example 14, (3R)-3-[3-(dihydroxyboranyl)propyl]-3-methyl-L-proline], for which the IC50 was found to be 16 nM. The molecule `O=C(O)[C@@]1(CCO)NCC[C@H]1CCCB(O)O` [Example 53, (2S,3R)-3-(3-boronopropyl)-2-(2-hydroxyethyl)pyrrolidine-2-carboxylic acid] had an IC50 of 1480 nM. For the molecule `O=C(O)C1CNCC1CCCB(O)O` (single isomer, unassigned) [Example 21B, 4-[3-(dihydroxyboranyl)propyl]pyrrolidine-3-carboxylic acid], the IC50 is 602 nM. Same read-out and setting: then `O=C(O)[C@@]1(CCN2CCCC2)NCC[C@H]1CCCB(O)O` [Example 55], with 15.9 nM; and `CC(C)C[C@H](N)C(=O)N[C@H]1CN[C@H](C(=O)O)[C@@H]1CCCB(O)O` [Example 42, (2S,3R,4R)-4-((S)-2-amino-4-methylpentanamido)-3-(3-boronopropyl)pyrrolidine-2-carboxylic acid], with 1.58 nM.

In turn, `O=C(O)[C@H]1NC[C@H](NCC(F)(F)F)[C@H]1CCCB(O)O` [Example 26, (2S,3R,4R)-3-(3-boronopropyl)-4-((2,2,2-trifluoroethyl)amino)pyrrolidine-2-carboxylic acid] showed an IC50 of 120 nM. `C[C@]1(CCCB(O)O)[C@@H](C(=O)O)NC[C@@H]1N` [Example 71, (2S,3R,4R)-4-amino-3-(3-boronopropyl)-3-methylpyrrolidine-2-carboxylic acid]: half-maximal inhibition (IC50) was put at 17 nM. `O=C(O)[C@@]1(CO)NCC[C@H]1CCCB(O)O` [Example 59A, (2R,3R)-3-(3-boronopropyl)-2-(hydroxymethyl)pyrrolidine-2-carboxylic acid]: half-maximal inhibition (IC50) was put at 311 nM. Molecule `O=C(O)[C@H]1NC[C@@H](O)[C@]1(F)CCCB(O)O` [Example 92C, (2R,3S,4R)-3-(3-boronopropyl)-3-fluoro-4-hydroxypyrrolidine-2-carboxylic acid] returned an IC50 greater than 10000 nM. The molecule `CN(C)C[C@@]1(CCCB(O)O)CCN[C@@H]1C(=O)O` [Example 86, (2S,3R)-3-(3-boronopropyl)-3-((dimethylamino)methyl)pyrrolidine-2-carboxylic acid] gave an IC50 of 119 nM. As to `O=C(O)[C@H]1NCC(CO)[C@H]1CCCB(O)O` (stereo partly drawn) [Example 91, (2S,3R)-3-(3-boronopropyl)-4-(hydroxymethyl)pyrrolidine-2-carboxylic acid], it took 20 nM to reach half-maximal inhibition (IC50).

`CC(C)(C)[C@H](N)C(=O)N[C@H]1CN[C@H](C(=O)O)[C@@H]1CCCB(O)O` [Example 38, (2S,3R,4R)-4-((S)-2-amino-3,3-dimethylbutanamido)-3-(3-boronopropyl)pyrrolidine-2-carboxylic acid] returned an IC50 of 0.818 nM. `N[C@@]1(C(=O)O)CNC[C@@]1(CO)CCCB(O)O` [Example 94C] returned an IC50 greater than 10000 nM.

In the next assay the test system is opossum internal anal sphincter muscle.
Assay: not given
The following applies: cited from earlier work.
With `N[C@@H](CCCCB(O)O)C(=O)O` [ABH, (S)-2-amino-6-boronohexanoic acid], the “relaxation of internal anal sphincter muscle” value was “relax this muscle”.

The next assay deals with guinea pigs.
Assay: not given
The following applies: nebulizer treatment, allergic asthma model; cited from earlier work.
`N[C@@H](CCCCB(O)O)C(=O)O` [ABH, (S)-2-amino-6-boronohexanoic acid]: the airway hyperresponsiveness entry was “prevents airway hyperresponsiveness”.

The test system of a further assay is rabbit and human penile corpus cavernosum.
Assay: not given
The following applies: rabbit and human tissue; cited from earlier work.
With `N[C@@H](CCCCB(O)O)C(=O)O` [ABH, (S)-2-amino-6-boronohexanoic acid], the “nitric oxide-dependent relaxation of penile corpus cavernosum” value was “enhances the nitric oxide-dependent relaxation of this tissue”.

The next assay concerns live male rabbits.
Assay: not given
As to conditions: cited from earlier work.
Turning to `N[C@@H](CCCCB(O)O)C(=O)O` [ABH, (S)-2-amino-6-boronohexanoic acid], the erectile response result is recorded as “enhances the erectile response”.

The subject of the next assay is corpus cavernosum of the diabetic man.
Assay: not given
As to conditions: ex vivo; cited from earlier work.
For the molecule `N[C@@H](CCCCB(O)O)C(=O)O` [ABH, (S)-2-amino-6-boronohexanoic acid], the nitric oxide biosynthesis result is “restores nitric oxide biosynthesis”.

The subject of the next assay is live female rabbits.
Assay: not given
As to conditions: cited from earlier work.
As for `N[C@@H](CCCCB(O)O)C(=O)O` [ABH, (S)-2-amino-6-boronohexanoic acid], the “engorgement response in the genitalia” value is “enhances the engorgement response”.

The test system of another assay is animal model of multiple sclerosis (experimental autoimmune encephalomyelitis).
Assay: not given
As to conditions: cited from earlier work.
Consider `N[C@@H](CCCCB(O)O)C(=O)O` [ABH, (S)-2-amino-6-boronohexanoic acid], for which the disease score entry is “improves the disease score”.

The term IC50 denotes the concentration at which inhibition is half-maximal.
